Values after ≈ are worked out from the molar mass of the structure shown. Values joined by “and” are separate entries in the source; they are usually repeats but may differ in a detail not shown here. Equal values may be shown once. Read-outs that look alike come from different tables or passages of the source.
Key:
HIV RT [1] = biological target: T1, HIV RT (Human immunodeficiency virus type 1 group M subtype B, UniProt P03367); assay: Effect of 5'-triphosphates on HIV reverse transcriptase (Table 6); type: biochemical; conditions: 5'-triphosphate; read-out: HIV RT K1
T1 construct: HIV reverse transcriptase

Host cell α-DNA pol [2] = biological target: T2, Host cell α-DNA pol (Homo sapiens, UniProt P09884); assay: Effect of 5'-triphosphates on alpha DNA polymerase (Table 6); type: biochemical; conditions: for Ratio: Cellular/HIV: K1 host cell α-DNA pol / K1 HIV RT
T2 sequence (P09884 1-1462): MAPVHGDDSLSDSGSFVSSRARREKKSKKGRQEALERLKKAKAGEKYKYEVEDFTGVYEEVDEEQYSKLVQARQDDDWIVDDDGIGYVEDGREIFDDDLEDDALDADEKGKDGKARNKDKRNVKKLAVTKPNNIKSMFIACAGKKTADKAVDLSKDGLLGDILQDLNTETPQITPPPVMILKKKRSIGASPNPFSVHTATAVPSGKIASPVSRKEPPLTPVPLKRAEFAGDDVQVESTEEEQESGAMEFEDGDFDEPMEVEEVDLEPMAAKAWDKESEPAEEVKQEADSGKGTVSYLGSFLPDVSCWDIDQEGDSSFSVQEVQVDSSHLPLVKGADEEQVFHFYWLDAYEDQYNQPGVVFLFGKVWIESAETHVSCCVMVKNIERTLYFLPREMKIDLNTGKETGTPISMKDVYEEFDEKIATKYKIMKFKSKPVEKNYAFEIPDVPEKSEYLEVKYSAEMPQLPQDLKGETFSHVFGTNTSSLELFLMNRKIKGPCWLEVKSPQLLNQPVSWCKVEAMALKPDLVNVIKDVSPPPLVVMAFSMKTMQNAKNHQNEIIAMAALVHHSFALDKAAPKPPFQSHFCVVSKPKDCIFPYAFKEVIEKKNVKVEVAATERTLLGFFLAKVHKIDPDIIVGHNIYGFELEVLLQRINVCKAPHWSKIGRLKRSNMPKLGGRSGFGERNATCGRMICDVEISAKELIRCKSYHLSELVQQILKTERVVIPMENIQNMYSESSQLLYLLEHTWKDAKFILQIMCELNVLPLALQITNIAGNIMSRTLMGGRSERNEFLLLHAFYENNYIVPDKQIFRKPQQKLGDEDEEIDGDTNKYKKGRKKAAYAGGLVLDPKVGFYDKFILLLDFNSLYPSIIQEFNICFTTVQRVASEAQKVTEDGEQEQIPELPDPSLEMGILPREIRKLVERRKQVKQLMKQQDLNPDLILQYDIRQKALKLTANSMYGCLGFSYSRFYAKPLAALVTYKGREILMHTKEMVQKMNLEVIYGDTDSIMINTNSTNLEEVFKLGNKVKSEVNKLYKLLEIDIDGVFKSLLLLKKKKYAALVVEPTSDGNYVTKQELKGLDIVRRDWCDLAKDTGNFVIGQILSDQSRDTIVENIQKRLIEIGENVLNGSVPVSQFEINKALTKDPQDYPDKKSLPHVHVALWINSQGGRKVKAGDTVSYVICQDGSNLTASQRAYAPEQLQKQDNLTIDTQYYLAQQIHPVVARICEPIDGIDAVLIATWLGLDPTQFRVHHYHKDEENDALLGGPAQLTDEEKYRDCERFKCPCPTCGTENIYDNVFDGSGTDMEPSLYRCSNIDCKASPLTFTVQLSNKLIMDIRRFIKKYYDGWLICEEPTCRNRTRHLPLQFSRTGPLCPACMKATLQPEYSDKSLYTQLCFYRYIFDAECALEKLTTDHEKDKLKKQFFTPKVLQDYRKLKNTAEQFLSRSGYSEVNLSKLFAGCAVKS

Host cell α-DNA pol [3] = biological target: T2, Host cell α-DNA pol; conditions: 5'-triphosphate; according to Furman et al.; read-out: Host cell α-DNA pol K1; cited from earlier work
HIV RT [4] = biological target: T1, HIV RT; conditions: 5'-triphosphate; according to Furman et al.; read-out: HIV RT K1; cited from earlier work
HIV-1 (Strain RF-II) = assay: Antiviral activity against HIV-1 in HeLa-T4 cells (Table 4); type: cell-based; conditions: Human immunodeficiency virus 1, HeLaT4, HIV-1
Method: Evaluation in Hela-T4 cells infected with HIV-1 (Strain RF-II)
HeLa-T4 cells (described in Cell 47: 333, 1986) are maintained in Dulbecco's Modified Eagle medium containing 10% inactivated fetal calf serum, penicillin (100 U/ml) and streptomycin (100 μg/ml), and the antibiotic G418 (1 mg/ml). The cells are seeded onto a 96-well plate (2×10^4 cells/well per 0.1 ml), and two days later, the supernatant is removed and the virus added. After adsorption for 45 minutes, the inoculum is removed and the cells washed with phosphate-buffered saline (pH 7.2). The compounds at different concentration are then added in maintenance medium (containing 2% serum). […] The cells are fixed with a mixture of 5% glacial acetic acid/95% Ethanol for 15 minutes, and then stained with Giemsa (20% in PSB) for 4 hours. The plates are then washed and dried. The foci are then enumerated with a dissecting stereomicroscope.

HIV-1 = assay: microbe, parasite or virus in culture; conditions: Human immunodeficiency virus 1, PBMC, read-out: PBM (EC50)
HIV-1 (Strain HTLV-III) = assay: Antiviral activity against HIV-1 in ATH-8 cells (Table 4); conditions: Human immunodeficiency virus 1, 240 h, read-out: ATH-8 (MIC)
HIV-1 (strain LAV) = assay: Inhibition of HIV replication in human PBM cells, reverse transcriptase assay (Table 3)
Friend (EY-10) = assay: Median effective antiviral concentration against Friend virus (Table 5); type: cell-based, murine retrovirus; conditions: unidentified retrovirus, in Mus musculus
Text: (§1) A comparison of the differences in median effective an tiviral concentrations between human, non-human primate, and murine retroviruses is shown in Table 5. […] A further comparison of the activity of several nucleoside analogues, including CS-87, against HIV-1 and SIV in human PBM cells is shown in FIG. 6. The effect of delayed treatment with AZT, CS-87 or CS-91 on the replication of HIV-1 and SIV in human PBM cells is shown in FIGS. 7a, b, and c.

HIV = conditions: in vitro
HIV (LAV-1) = assay: Median effective antiviral concentration against HIV (Table 5); type: cell-based; conditions: Human immunodeficiency virus 1
HIV-1 p24 = assay: Inhibition of HIV replication in human PBM cells, p24 RIA (Table 3)
NIH Swiss mice = conditions: oral 0.5 mg/ml ad libitum, 67 days
SIV (SMM) = assay: Median effective antiviral concentration against SIV (Table 5); type: cell-based, simian immunodeficiency virus; conditions: Simian immunodeficiency virus
Text: as §1

Friend Leukemia virus = conditions: Ostertag et al.; Krieg et al.; cited from earlier work
uninfected cells = conditions: CS-87 compared with AZT
HIV-1 and SIV = assay: Effect of delayed treatment on replication of HIV-1 and SIV in human PBM cells (FIG. 7); type: cell-based, HIV-1; SIV
Text: as §1

[5] = preliminary results, Yarchoan et al. 1986; cited from earlier work
[6] = tested on: Mouse ecotropic (Cas-Br-M); assay: Median effective antiviral concentration against mouse ecotropic virus (Table 5); type: cell-based, murine retrovirus; conditions: unidentified retrovirus
Text: as §1

HIV p24 and p41 = assay: Inhibition of HIV replication in human PBM cells, western blot analysis (Table 3)
[7] = Human immunodeficiency virus 1, PBMC, in Homo sapiens, read-out: RT % Inhibition (corrected)
[8] = Human immunodeficiency virus 1, PBMC, in Homo sapiens, read-out: RIA p24 % Inhibition
[9] = individual mouse, listed as AzT
[10] = individual mouse, listed as Azt

[N-]=[N+]=N[C@H]1C[C@H](n2ccc(=O)[nH]c2=O)O[C@@H]1COP(=O)(O)OP(=O)(O)OP(=O)(O)O [CS-87-TP, 3'-azido-2',3'-dideoxyuridine triphosphate]
Ki (HIV RT [1]): 0.009 µM | Ki (Host cell α-DNA pol [2]; 5'-triphosphate, read-out: Host cell α-DNA pol K1): 1200 µM | Ratio: Cellular/HIV (Host cell α-DNA pol [2]): 133,333

Cc1cn([C@H]2C[C@H](N=[N+]=[N-])[C@@H](CO[P@](=O)(O)O[P@](=O)(O)OP(=O)(O)O)O2)c(=O)[nH]c1=O [AZT-TP]
Ki (Host cell α-DNA pol [3]): 230 µM | Ratio: Cellular/HIV (Host cell α-DNA pol [2]): 5,750 | Ki (HIV RT [4]): 0.04 µM

Nc1ccn([C@H]2CC[C@@H](CO)O2)c(=O)n1 [d2C (ddC), 2',3'-dideoxycytidine, reference compound]
EC50 (HIV-1 (Strain RF-II)): 0.48 µM | EC50 (HIV-1): 0.011 µM | MIC (HIV-1 (Strain HTLV-III)): 0.47 µM (≈ 0.0993 µg/mL)

Cc1cn([C@H]2C[C@H](N=[N+]=[N-])[C@@H](CO)O2)c(=O)[nH]c1=O [AZT, 3'-azido-3'-deoxythymidine, reference compound]
RT: Mean DPM/ml on day 5 (3 day old cells) (HIV-1 (strain LAV); 0.01 μM): 65,208 DPM/ml | RT: Mean DPM/ml on day 5 (3 day old cells) (HIV-1 (strain LAV); 0.1 μM): 6,144 DPM/ml | RT: Mean DPM/ml on day 5 (3 day old cells) (HIV-1 (strain LAV); 1 μM): 2,304 DPM/ml | inhibition at 0.01 µM (HIV-1 (strain LAV); [7]): 89.8% | inhibition at 0.1 µM (HIV-1 (strain LAV); [7]): 99.1% | inhibition at 1 µM (HIV-1 (strain LAV); [7]): 99.7% | EC50 (Friend (EY-10)): 0.004 µM | activity against HIV, in words (HIV): somewhat more active than CS-87 | EC50 (HIV (LAV-1)): 0.002 µM | EC50 (HIV-1 (Strain RF-II)): 0.34 µM | RIA p24 (Dupont kit) (HIV-1 p24; 0.01 μM): 4.39 ng/mL | RIA p24 (Dupont kit) (HIV-1 p24; 0.1 μM): 0.51 ng/mL | RIA p24 (Dupont kit) (HIV-1 p24; 1 μM): 0.18 ng/mL | inhibition at 0.01 µM (HIV-1 p24; [8]): 81.8% | inhibition at 0.1 µM (HIV-1 p24; [8]): 97.9% | inhibition at 1 µM (HIV-1 p24; [8]): 99.3% | Hct (NIH Swiss mice; Mean of group): 28.7% | Hgb (NIH Swiss mice; Mean of group): 9.2 g/dL | MCH (NIH Swiss mice; Mean of group): 21.4 pg | MCHC (NIH Swiss mice; Mean of group): 32.0 g/dL | MCV (NIH Swiss mice; Mean of group): 66.8 fL | PLT (NIH Swiss mice; Mean of group): 1.2 × 10^6 | RBC (NIH Swiss mice; Mean of group): 4.3 × 10^6 | RDW (NIH Swiss mice; Mean of group): 23.4% | WBC (NIH Swiss mice; Mean of group): 6.6 × 10^3 | Hct (NIH Swiss mice; [9]): 28.4% and 35.0% | Hgb (NIH Swiss mice; [9]): 9.1 g/dL and 11.0 g/dL | MCH (NIH Swiss mice; [9]): 22.1 pg and 21.2 pg | MCHC (NIH Swiss mice; [9]): 32.1 g/dL and 31.4 g/dL | MCV (NIH Swiss mice; [9]): 68.9 fL and 67.4 fL | PLT (NIH Swiss mice; [9]): 1.076 × 10^6 and 1.292 × 10^6 | RBC (NIH Swiss mice; [9]): 4.1 × 10^6 and 5.2 × 10^6 | RDW (NIH Swiss mice; [9]): 29.9% and 17.8% | WBC (NIH Swiss mice; [9]): 4.5 × 10^3 and 8.8 × 10^3 | Hct (NIH Swiss mice; [10]): 21.1% and 30.1% | Hgb (NIH Swiss mice; [10]): 6.9 g/dL and 9.6 g/dL | MCH (NIH Swiss mice; [10]): 20.5 pg and 21.6 pg | MCHC (NIH Swiss mice; [10]): 32.6 g/dL and 31.9 g/dL | MCV (NIH Swiss mice; [10]): 62.9 fL and 67.8 fL | PLT (NIH Swiss mice; [10]): 1.187 × 10^6 and 1.112 × 10^6 | RBC (NIH Swiss mice; [10]): 3.4 × 10^6 and 4.4 × 10^6 | RDW (NIH Swiss mice; [10]): 24.6% and 21.3% | WBC (NIH Swiss mice; [10]): 5.2 × 10^3 and 7.9 × 10^3 | EC50 (SIV (SMM)): 0.002 µM | EC50 (HIV-1): 0.002 µM | MIC (HIV-1 (Strain HTLV-III)): 0.32 µM (≈ 0.0855 µg/mL) | activity against Friend Leukemia virus (Friend Leukemia virus): activity against Friend Leukemia virus | cytotoxicity / toxicity in words (uninfected cells): much greater toxicity | effect of delayed treatment on replication of HIV-1 and SIV (HIV-1 and SIV): time of administration is critical to the effectiveness of the treatment | toxicity in a clinical setting [5]: exhibits toxicity | EC50 [6]: 0.007 µM | Western blot p24 (band intensity) (HIV p24 and p41; 0.01 μM): 2+ | Western blot p41 (band intensity) (HIV p24 and p41; 0.01 μM): 1+ | Western blot p24 (band intensity) (HIV p24 and p41; 0.1 μM): 0 | Western blot p41 (band intensity) (HIV p24 and p41; 0.1 μM): 0 | Western blot p24 (band intensity) (HIV p24 and p41; 1 μM): 0 | Western blot p41 (band intensity) (HIV p24 and p41; 1 μM): 0

— patent US4916122A, “3'-Azido-2',3'-dideoxyuridine anti-retroviral composition” (University of Georgia Research Foundation, Inc., priority 1987, dated 1990)
